Laboratory results reported in patent US10106834B2, “Methods of diagnosing and treating B cell acute lymphoblastic leukemia” (The General Hospital Corporation, priority 2013, dated 2018).

System: integrin α4β1 (VLA-4) on WT and IkE5Δ/Δ pre-B cells
Assay: Adhesion of adherent pre-B cells to fibronectin-coated plates with peptide blocking
Type: cell-based, mouse
Settings: 400 μg/ml peptide
Experimental: Adhesion to Integrin Ligands and In Vitro FAK Inhibition Assay. Adhesion assay were performed in non-TC treated plates (BD). The plates were coated with 10 ug/ml fibronectin (FN), collagen (Col.) (Invitrogen) or BSA alone overnight at 4° C. After blocking the plates with 2% BSA for 1 h, equal number of cells were plated and incubated for the indicated time points. At the end of the assay, unbound and bound cells were harvested and enumerated. Percent adhesion was calculated by taking ratio of bound cells over total cells used in each assay.
For peptide mediated blocking of adhesion^55, equal number of cells were pretreated for 45 minutes with either 400 μg/ml G-R-G-D-S-P (SEQ ID NO:1) or the control peptide G-R-G-E-S (SEQ ID NO:2) (American Peptide Company) and plated on FN-coated TC dishes. Cells were enumerated for calculation of percent adhesion and percent inhibition.

G-R-G-D-S-P [RGD]
binding of pre-B cells to fibronectin: significantly inhibited
